Test results from patent US20150011466A1, “APJ Receptor Compounds” (priority 2012, published 2015).
Where a SMILES comes first, the peptide text is derived from it. [ ]: non-standard residue; d: D form. The star is where a group is joined. Palmitoyl = CCCCCCCCCCCCCCCC(=O)*

Tests used:
APJ receptor = target: T1, APJ receptor (Homo sapiens, UniProt P35414); assay: HTRF cAMP assay, inhibition of NKH477 stimulated cAMP in Human TRex cells expressing APJ upon doxycycline induction (APJ-hTREX); format: cell-based; settings: for percent intrinsic activity at 0.3 µM: read-out: % IA (@ 300 nM)
T1 construct: expressed in transfected cells; host or cells: Human TRex cells (doxycycline-inducible)
T1 sequence (P35414 1-380): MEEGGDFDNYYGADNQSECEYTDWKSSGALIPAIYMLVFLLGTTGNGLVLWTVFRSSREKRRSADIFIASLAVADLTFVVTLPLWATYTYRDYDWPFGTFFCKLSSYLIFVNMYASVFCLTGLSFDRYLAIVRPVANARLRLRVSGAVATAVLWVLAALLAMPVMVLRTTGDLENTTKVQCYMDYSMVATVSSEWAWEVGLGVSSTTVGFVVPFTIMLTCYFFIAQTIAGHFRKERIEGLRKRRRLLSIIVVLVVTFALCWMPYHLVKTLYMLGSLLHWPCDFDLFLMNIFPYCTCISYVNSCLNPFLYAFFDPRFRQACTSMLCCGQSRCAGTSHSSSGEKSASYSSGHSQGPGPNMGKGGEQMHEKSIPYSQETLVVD
Text: HTRF (homogeneous time resolved fluorescence) is a technology developed by Cisbio Bioassays based on TR-FRET (time-resolved fluorescence resonance energy transfer). Cisbio Bioassays has developed a wide selection of HTRF-based assays compatible with whole cells, thereby enabling functional assays to run under more physiological conditions. The IP-One assays are competitive immunoassays using cryptate-labeled anti-IP1 monoclonal antibody and d2-labeled IP1. IP1 is a relatively stable downstream metabolite of IP3, and accumulates in cells following Gq receptor activation.
cAMP kits based on a competitive immunoassay using cryptate-labeled anti-cAMP antibody and d2-labeled cAMP were used to assay the effects of APJ compounds of the present invention. […] Cells are treated with […] doxycycline and seeded in all white 96 well plates @ 40 k/well overnight.

| Structure (SMILES) | percent intrinsic activity at 0.3 µM (APJ receptor) | Histimine (% vs. 48/40) (Histimine (% vs. 48/40)) | EC50 (APJ receptor) | Ranking (APJ receptor; class combining EC50 and % histamine) |
| --- | --- | --- | --- | --- |
| CCCCCCCCCCCCCCCC(=O)N[C@H](C(=O)N[C@H](C(=O)N[C@@H](Cc1ccccc1)C(=O)N[C@@H](CCCNC(=N)N)C(=O)N[C@@H](CO)C(=O)N[C@@H](CO)C(=O)N[C@@H](CCC(=O)O)C(=O)N[C@H](CCCCN)C(=O)N[C@@H](CCCNC(=N)N)C(=O)N[C@@H](CCCNC(=N)N)C(=O)N[C@@H](CO)C(=O)N[C@@H](C)C(=O)N[C@@H](Cc1c[nH]cn1)C(=O)N[C@H](C(=O)N[C@@H](Cc1ccccc1)C(=O)N[C@H](C(N)=O)[C@@H](C)CC)[C@@H](C)CC)C(C)C)[C@@H](C)O [Compound 16] (Palmitoyl-TVFRSSE[dK]RRSAHIFI-NH2) | 63% | 107% | – | – |
| CCCCCCCCCCCCCCCC(=O)N[C@H](C(=O)N[C@H](C(=O)N[C@@H](Cc1ccccc1)C(=O)N[C@@H](CCCNC(=N)N)C(=O)N[C@@H](CO)C(=O)N[C@@H](CO)C(=O)N[C@@H](CCC(=O)O)C(=O)N[C@H](CCCCN)C(=O)N[C@@H](CCCNC(=N)N)C(=O)N[C@@H](CCCNC(=N)N)C(=O)N[C@@H](CO)C(=O)N[C@@H](C)C(=O)N[C@@H](CC(=O)O)C(=O)N[C@@H](Cc1c[nH]cn1)C(=O)N[C@@H](Cc1ccccc1)C(=O)N[C@H](C(N)=O)[C@@H](C)CC)C(C)C)[C@@H](C)O [Compound 17] (Palmitoyl-TVFRSSE[dK]RRSADHFI-NH2) | 83% | 113% | – | – |
| CCCCCCCCCCCCCCCC(=O)N[C@H](C(=O)N[C@H](C(=O)N[C@@H](Cc1ccccc1)C(=O)N[C@@H](CCCNC(=N)N)C(=O)N[C@@H](CO)C(=O)N[C@@H](CO)C(=O)N[C@@H](CCC(=O)O)C(=O)N[C@H](CCCCN)C(=O)N[C@@H](CCCNC(=N)N)C(=O)N[C@@H](CCCNC(=N)N)C(=O)N[C@@H](CO)C(=O)N[C@@H](C)C(=O)N[C@@H](CC(=O)O)C(=O)N[C@H](C(=O)N[C@@H](Cc1c[nH]cn1)C(=O)N[C@H](C(N)=O)[C@@H](C)CC)[C@@H](C)CC)C(C)C)[C@@H](C)O [Compound 18] (Palmitoyl-TVFRSSE[dK]RRSADIHI-NH2) | 56% | 62% | – | – |
| CCCCCCCCCCCCCCCC(=O)N[C@H](C(=O)N[C@H](C(=O)N[C@@H](Cc1ccccc1)C(=O)N[C@@H](CCCNC(=N)N)C(=O)N[C@@H](CO)C(=O)N[C@@H](CO)C(=O)N[C@@H](CCC(=O)O)C(=O)N[C@H](CCCCN)C(=O)N[C@@H](CCCNC(=N)N)C(=O)N[C@@H](CCCNC(=N)N)C(=O)N[C@@H](CO)C(=O)N[C@@H](C)C(=O)N[C@@H](CC(=O)O)C(=O)N[C@H](C(=O)N[C@@H](Cc1ccccc1)C(=O)N[C@@H](Cc1c[nH]cn1)C(N)=O)[C@@H](C)CC)C(C)C)[C@@H](C)O [Compound 19] (Palmitoyl-TVFRSSE[dK]RRSADIFH-NH2) | 53% | 104% | – | – |
| CCCCCCCCCCCCCCCC(=O)N[C@H](C(=O)N[C@@H](CCC(N)=O)C(=O)N[C@@H](Cc1ccccc1)C(=O)N[C@@H](CCCNC(=N)N)C(=O)N[C@@H](CO)C(=O)N[C@@H](CO)C(=O)N[C@@H](CCC(=O)O)C(=O)N[C@H](CCCCN)C(=O)N[C@@H](CCCNC(=N)N)C(=O)N[C@@H](CCCNC(=N)N)C(=O)N[C@@H](CO)C(=O)N[C@@H](C)C(=O)N[C@@H](CC(=O)O)C(=O)N[C@H](C(=O)N[C@@H](Cc1ccccc1)C(=O)N[C@H](C(N)=O)[C@@H](C)CC)[C@@H](C)CC)[C@@H](C)O [Compound 21] (Palmitoyl-TQFRSSE[dK]RRSADIFI-NH2; C-terminus assumed) | 72% | 39% | 41 nM | *** (EC50<100 nM and % histamine>35%) |
